Measurements from patent US6706509B2, “Oncoprotein protein kinase” (The Regents of the University of California, priority 1993, dated 2004).

How the values were obtained:
jun-D = experiment: Northern blot of jun-D expression in Jurkat cells; format: cell-based, human; details: CsA 100 ng/ml, 40 minutes
Procedure: Exponentially growing Jurkat cells (10^6/ml) grown in complete RPMI medium was pretreated with CsA for 15 minutes when applicable, then subjected to various treatments for another 40 minutes. Total cytoplasmic RNA was extracted as previously described (Angel, et al., Cell, 49:729-739, 1987). 10 μg RNA was denatured by incubating with glyoxal for 60 minutes at 55° C. and fractionated on a 1% agarose gel in phosphate buffer. The fractionated RNA was blotted to Zetabind Nylon membrane (CUNO Labs) and hybridized to ^32P-labelled cDNA probes specific for c-jun, jun-B, jun-D, c-fos, α-tubulin and IL-2.
During the first stage of T lymphocyte activation, early response genes are rapidly included (Crabtree, Science, 243:355,361, 1989; Zipfel, et al., Mol Cell Bio., 9:1041-1048, 1989). Induction of jun and fos genes during activation of the Jurkat T cell line was investigated. […] After fractionation of 10 μg samples on an agarose gel and transfer to nylon membrane, the level of c-jun, jun-B, jun-D, c-fos and α-tubulin expression was determined by hybridization to random primed cDNA probes.

[1] = system: N-terminal c-Jun kinase (JNK); experiment: Solid-phase kinase assay of N-terminal c-Jun kinase activity in Jurkat cell extracts; format: cell-based, human; details: Jurkat cells, TPA 50 ng/ml, after 30 minutes
Procedure: Cell extracts were diluted so that the final composition of the WCE buffer was 20 mM HEPES pH 7.7, 75 mM NaCl, 2.5 mM MgCl2, 0.1 mM EDTA, 0.05% Triton X-100, 0.5 mM DTT, 20 mM β-glycerolphosphate, 0.1 mM Na3VO4, 2 μg/ml leupeptin, 100 μg/ml PMSF. The extracts were mixed with 10 μl of GSH-agarose suspension (Sigma) to which 10 μg of either GST or GST-Jun fusion proteins were bound. The mixture was rotated at 4° C. for 3 hours in a microfuge tube and pelleted by centrifugation at 10,000×g for 20 sec. After 4×1 ml washes in HEPES binding buffer (20 mM HEPES pH 7.7, 50 mM NaCl, 2.5 mM MgCl2, 0.1 mM EDTA, 0.05% Triton X-100), the pelleted beads were resuspended in 30 μl of kinase buffer (20 mM HEPES pH 7.6, 20 mM MgCl2, 20 mM β-glycerolphosphate, […] p-nitrophenyl phosphate, 0.1 mM Na3VO4, 2 mM DTT) containing 20 μM ATP and 5 μCi γ-^32P-ATP. After 20 minutes at 30° C. the reaction was terminated by washing with HEPES binding buffer. Phosphorylated proteins were eluted with 30 μl of 1.5×Laemlli sample buffer and resolved on a 10% SDS polyacrylamide gel, followed by autoradiography. Quantitation of phosphate incorporated was determined by gel slicing and scintillation counting. Phosphorylated GST fusion proteins were eluted from gel slices and subjected to phosphopeptide mapping as described (Boyle, et al., supra, 1991). […]

JNK1 = experiment: Epitope-tagged JNK1 protein kinase activity in transfected COS cells; format: cell-based; details: 10 nM EGF or 100 nM TPA
Procedure: JNK1 protein kinase activity was detected in the immune-complex. Immunecomplex kinase assays using either M2 immunoprecipitates or purified JNK1, JNK-46, and ERK1 or ERK2 were performed at 30° C. for 20 mins using 3 μg of substrate, 20 μM ATP and 5 μCi of [γ-^32P]ATP in 30 μl of kinase buffer (25 mM Hepes (pH 7.6), 20 mM MgCl2, 20 mM β-glycerophosphate, 20 mM p-nitrophenyl phosphate, 0.1 mM Na orthovanadate, 2 mM DTT). The reactions were terminated with Laemmli sample buffer and the products were resolved by SDS-PAGE (12% gel). JNK1 protein activity was also measured after SDS-PAGE by the in-gel kinase assay with the substrate GST-cJun(1-79) as described by Hibi, et al., supra, (1993). Solid-phase protein kinase assays were performed as described by Hibi, et al., supra, (1993). Clarified cell extracts were incubated with GST fusion proteins immobilized on GSH-agarose beads. After 3 hours at 4° C., the beads were washed extensively and bound JNK1 was detected by the addition of [γ-^32P]ATP. The reaction was terminated after 10 mins at 30° C. and the products were resolved by SDS-PAGE. The incorporation of [^32P]phosphate was visualized by autoradiography and quantitated with a phosphorimager and ImageQuant software (Molecular Dynamics Inc., Sunnyvale, Calif.). The methods used for phosphopeptide mapping (Boyle, et al., Cell 64:573-584, 1991) and phosphoamino acid analysis (Alvarez, et al., J. Biol. Chem 266:15227-15285, 1991) were described previously.
Epitope-tagged JNK1 was expressed in COS cells. Control experiments were performed using mock-transfected cells. After 48 hours, the cells were treated either without or with 100 nM TPA, 10 nM EGF, or 80 J/m^2 UV-C and incubated for 1 hr. The cells were lysed in RIPA buffer and the JNK1 proteins were isolated by immunoprecipitation with the M2 monoclonal antibody. JNK1 protein kinase activity was measured after SDS-PAGE using an in-gel kinase assay with the substrate GST-cJun(1-79) polymerized into the gel.
COS-1 cells were maintained in. Dulbecco's modified Eagle's medium supplemented with 5% […] (Gibco-BRL). Metabolic labeling with [^32P]phosphate was performed by incubation of cells in phosphate-free modified Eagle's medium (Flow Laboratories Inc.) supplemented with 0.1% fetal bovine serum and 1 mCi/ml [^32P]orthophosphate (Dupont-NEN). COS cells were treated with 10 nM EGF or 100 nM thorbol myristate acetate. The cells were then incubated for defined times at 37° C. prior to harvesting and measurement of JNK1 protein kinase activity. The data are presented as arbitrary units. […] In contrast, exposure to UV radiation caused a marked increase in JNK1 activity.

cyclosporin A [CsA]
effect on potentiation of jun-D expression by TPA+A23187 (jun-D): not inhibited

CCCCCCCCCCCCCC(=O)O[C@@H]1[C@@H](C)[C@@]2(O)[C@@H](C=C(CO)C[C@]3(O)C(=O)C(C)=C[C@@H]23)[C@H]2C(C)(C)[C@]12OC(C)=O [TPA]
N-terminal kinase activity, activation [1]: 25 fold
JNK1 activation (JNK1): low level of JNK1 activation
duration of JNK1 activation (JNK1): approximately 2 hours
